Measured values published in patent US20140256830A1, “RESORCINOL COMPOUNDS FOR DERMATOLOGICAL USE” (Ampere Life Sciences, Inc., priority 2013, published 2014).

Columns and labels:
[1] = system: mushroom tyrosinase (Sigma T3824); experiment: Mushroom Tyrosinase Inhibition Assay; type: biochemical; details: 10 μM compound, 300 μM L-Tyrosine, 84 units/mL enzyme, pH 6.5, 15 min room temperature
Protocol: 10 μM compound, 300 μM L-Tyrosine, and 84 units/mL of mushroom tyrosinase (Sigma T3824) were combined into 0.05 M potassium monophosphate buffer at pH=6.5, and incubated for 15 min at room temperature. Absorbance was recorded at 490 nm. % tyrosinase inhibition was calculated as follows: (AbsDMSO−Abscmpd)/AbsDMSO×100. The assay was performed for various compounds described herein, as well as for control compounds 4-ethyl resorcinol (4ER), 4-isopropylresorcinol (4IPR), 4-hexylresorcinol (4HR), 4-cyclohexylresorcinol (4CHR), 5-methylresorcinol (5MR), kojic acid (KA), and hydroquinone (HQ), structures of which are shown below.

[2] = system: human neonatal epidermal melanocytes (HEMn-DP) / HaCaT cells co-culture; experiment: Melanocyte-HaCaT Co-Culture Assay; type: cell-based; details: 10 μM concentration, 72 h, corrected for viability (Calcein-AM)
Protocol: Darkly pigmented human neonatal epidermal melanocytes (HEMn-DP, Invitrogen) were grown in Medium 254 with HMGS-2 supplement and P/S at 37° C. and 5% CO2. HaCaT cells were grown in DMEM, 10% FBS, P/S at 37° C., 5% CO2. Co-culture was conducted in 50% melanocyte media+50% keratinocyte media (EpiLife with EDGS, P/S). Cells were plated in the co-culture media at 40K (HaCaT) and 30K (HEMn-DP) per well in a 24-well plate. After 24 h of incubation at 37° C. and 5% CO2, media was changed to M153 (MCDB153 Sigma M7403 with NaHCO3 pH to 7.1, 2 mM Tyrosine, 10 nM NDP-aMSH, 3 ng/mL bFGF, 2.8 ug/mL Hydrocortisone, 10 ug/mL Insulin, 10 ug/mL Transferrin, and P/S), treated with compound, and incubated for 72 h at 37° C. and 5% CO2. After measuring cellular viability with Calcein-AM (RFU Ex/Em=488/525 nm), cells were lysed at 1 h at 65° C. with 1N NaOH+10% DMSO. Absorbance of cleared lysate was measured at 405 nm and 660 nm. % melanin was calculated as follows: ((Abs405DMSO−Abs660DMSO)/CalceinDMSO)−(Abs405comp−Abs660comp)/Calceincomp))/(Abs405DMSO−Abs660DMSO)/CalceinDMSO×100. At 10 μM concentration, % cellular melanin was 42% in the presence of compound 4,5CHMR.

| Compound | Mushroom Tyrosinase (% remaining enzyme activity) % TYR Activity [1] | % cellular melanin [2] |
| --- | --- | --- |
| Cc1cc(O)cc(O)c1Cc1ccccc1 [4,5BnMR, 4-benzyl-5-methylbenzene-1,3-diol] | 97% |  |
| Oc1cc(O)c(Cc2ccccc2)c(C(F)(F)F)c1 [4,5BnTFMR, 2-Benzyl-1,5-dihydroxy-3-trifluoromethyl-benzene] | 93% |  |
| Oc1cc(O)c(C2CCCCC2)c(F)c1 [4,5CHFR, 4-cyclohexyl-5-fluorobenzene-1,3-diol] | 1% |  |
| Cc1cc(O)cc(O)c1C1CCCCC1 [4,5CHMR, 4-cyclohexyl-5-methylbenzene-1,3-diol] | 22% | 42% |
| Oc1cc(O)c(C2CCCCC2)c(C(F)(F)F)c1 [4,5CHTFMR] | 100% |  |
| Cc1cc(O)cc(O)c1C1CCCC1 [4,5CPMR, 4-cyclopentyl-5-methylbenzene-1,3-diol] | 71% |  |
| Oc1cc(O)c(C2CCCCC2)c(F)c1 [4,5EFR, 4-cyclohexyl-5-fluorobenzene-1,3-diol] | 3% |  |
| CCc1c(O)cc(O)cc1C(F)(F)F [4,5ETFMR, 2-Ethyl-1,5-dihydroxy-3-trifluoromethyl-benzene] | 102% |  |
| Oc1ccc(C2CCCCC2)c(O)c1 [Compound 4CHR, 4-cyclohexylresorcinol, reference compound] | 0% |  |
| CCc1ccc(O)cc1O [Compound 4ER, 4-ethyl resorcinol, reference compound] | 2% |  |
| CCCCCCc1ccc(O)cc1O [Compound 4HR, 4-hexylresorcinol, reference compound] | 1% |  |
| CC(C)c1ccc(O)cc1O [Compound 4IPR, 4-isopropylresorcinol, reference compound] | 1% |  |
| Cc1cc(O)cc(O)c1 [Compound 5MR, 5-methylresorcinol, reference compound] | 100% |  |
| Oc1ccc(O)cc1 [Hydroquinone, hydroquinone, reference compound] | 100% |  |
| O=c1cc(CO)occ1O [Kojic Acid, kojic acid, reference compound] | 84% |  |

Now from value to compound, other results behind:

| Mushroom Tyrosinase (% remaining enzyme activity) % TYR Activity [1] | Compound | % cellular melanin [2] |
| --- | --- | --- |
| 30% | Cc1cc(O)cc(O)c1C1CC1 [4,5CPrMR, 4-cyclopropyl-5-methylbenzene-1,3-diol] |  |
| 93% | CCc1c(C)cc(O)cc1O [4,5EMR, 4-ethyl-5-methylbenzene-1,3-diol] |  |
| 10% | CCCCCCc1c(C)cc(O)cc1O [4,5HMR, 4-hexyl-5-methylbenzene-1,3-diol] |  |
| 108% | Cc1cc(O)cc(O)c1C(C)C [4,5IPMR, 4-isopropyl-5-methylbenzene-1,3-diol] |  |
| 32% | Cc1cc(O)cc(O)c1CC1CCCC1 [4,5MCPMR, 4-cyclopentylmethyl-5-methylbenzene-1,3-diol] |  |
| 105% | Cc1cc(O)cc(O)c1C(C)c1ccccc1 (stereo not drawn) [4,5PEMR, 4-(1-phenylethyl)-5-methylbenzene-1,3-diol] |  |
| 103% | Cc1cc(O)cc(O)c1CC(F)(F)F [4,5TFEMR, 4-(2,2,2-trifluoroethyl)-5-methylbenzene-1,3-diol] |  |
| 100% | CCC(C)c1c(C)cc(O)cc1O (stereo not drawn) [4,5sBMR, 4-sec-butyl-5-methylbenzene-1,3-diol] |  |
